The source of these data is patent US7368582B2, “Amidomethyl-substituted 2-(4-sulfonylamino)-3-hydroxy-3,4-dihydro-2H-chromen-6-yl compounds, a process and intermediates for their production, and pharmaceutical compositions containing them” (Solvay Pharmaceuticals GmbH, priority 2003, dated 2008).

The target of one data set is T1, Kv 1.5-potassium channel (Homo sapiens, UniProt P22460).
T1 construct: expressed in transfected cells
Description: In-vitro Kv 1.5-potassium channel-blocking effect (Rb+ outflow from CHO cells, atomic absorption spectroscopy). Particulars: CHO cells stably expressing Kv 1.5, read-out: IC50 (Kv1.5-potassium channel-blocking effect, concentration of half-maximum inhibition). In kind it is cell-based. The method, then: 1. In-Vitro Investigation of the Kv 1.5-Potassium Channel-Blocking Effect of the Substances
In this test model, a cell line of egg cells of the Chinese hamster (=“Chinese hamster oocytes”, “CHO”) is used which originates from a single cell and stably expresses the Kv 1.5-channel. By incubation overnight in a nutrient medium containing RbCl or a “loading buffer” (all values in mM: RbCl 5, NaCl 140, CaCl2 2, MgSO4 1, HEPES buffer 10, glucose 5) the aforementioned oocytes are loaded with Rb^+ under the influence of Na^+/K^+-ATPase. Thereafter, a portion of the oocytes is incubated as a reference standard in the absence of an inhibitor, while another portion of the oocytes is incubated in the presence of the respective inhibitory test substance of Formula I. Then the oocytes are depolarized by increasing the extracellular potassium-ion concentration, which causes the Kv 1.5-potassium channels of the oocytes to open. In the absence of an inhibitor, the Rb^+ ions flow through the Kv 1.5-potassium channels into the liquid surrounding them. In the presence of an inhibitory test substance of Formula I, on the other hand, the Rb^+ ions remain locked within the oocytes. The extent of the Kv 1.5-potassium channel-blocking effect of the test substances of Formula I is determined by measuring the Rb^+ ion concentration in the liquid surrounding them by means of atomic absorption spectroscopy against a reference standard.
Chinese hamster oocytes (see above) were cultivated in a known, RbCl-containing nutrient medium for CHO-cells and placed in the sample wells of a 96-sample capacity sample plate (“96 well plate”). The oocytes were allowed to grow overnight in order to obtain monolayers of the oocytes. Then the nutrient medium was pipetted off, and each sample well was washed three times with 100 μl portions of a preincubation buffer of low potassium-ion concentration (all values in mM: KCl 5, NaCl 140, CaCl2 2, MgSO4 1, HEPES buffer 10, glucose 5). Then 50 μl of a solution of the respective test substance (stock solution in DMSO, dilution with preincubation buffer, final concentration in the test batch 10 μM) or of the solvent (as negative controls) was added to each sample well and incubated for 10 min. in each case at room temperature. Then 50 μl of a stimulation buffer with elevated potassium-ion concentration (KCl 145 mM, NaCl 0 mM, otherwise as preincubation buffer) was added to each sample well and the samples were then incubated for a further 10 min. at room temperature. In each case, 80 μl of the liquid surrounding the oocytes from each sample well was then transferred separately to the sample wells of an analysis sample plate, and the Rb^+ ion concentration in the liquids was determined by atomic absorption spectroscopy. The test substances were each double-tested. The signal section which represented the Kv 1.5 component of the Rb^+ outflow was defined by using as positive control the known potassium channel blocker 4-AP in a high concentration (100×IC50 for the Kv 1.5 channel). This made it possible to determine which portion of the Rb^+ outflow was dependent on the influence of the 4-AP and therefore is to be assigned to the Kv 1.5 channel. For the substances which in the concentration of 10 μM used led to a reduction in the Rb^+ outflow of at least 50%, additional tests were performed with lower concentrations of the test substances in order to be able to determine the half-maximum effective concentration. In each case the concentration of half-maximum inhibition of the test substances of Formula I (IC50) was given as characteristic variable.

For the next data set, the system named is ventricle of guinea pigs. Nature of the data set: Functional effectiveness on guinea-pig hearts in vivo (ERP, QT, QRS, systolic blood pressure). Details: species or system guinea pig (Dunkin-Hartley). The note with it: 1 min. after 10 μmole/kg i.v.; for QRS / QT / syst. blood pressure (change): guinea pigs; for syst. blood pressure (change): minus effects due to the vehicle, negative values indicate reduction; for ERP: ventricle of guinea pigs, negative values indicate shortening. An excerpt: 4. Investigation of the Functional Effectiveness of the Substances on Guinea-Pig Hearts in Vivo
In the test model shown below, it was shown that the substances according to the invention at most have slight undesirable proarrhythmic effects on repolarization in the ventricle. To this end, the influence of the compounds of Formula I on the effective refractory period (ERP) and other influencing variables on guinea-pig hearts in vivo were investigated. In this test model, non-selective potassium channel blockers not in accordance with the invention, which also block HERG and/or KvLQT1 channels, result in undesirable prolongation of the ERP and the QT time on an electrocardiogram (═ECG). The QT time is likewise a measurement of the repolarization in the heart. Prolongations of both the ERP and the QT time, respectively, which are due to the substances were independently interpreted as indications of the risk of the occurrence of undesirable torsade-de-pointes arrhythmias. Furthermore, the QRS interval also was determined in each case from the ECG as a measurement of the ventricular rate of spread of stimulus. Even a prolongation of the QRS interval caused by a test substance is connected with an increased risk of undesirable pro-arrhythmic side-effects. Therefore in this test model the lack of an ERP and QT time prolongation signifies a low risk, but the occurrence of a relevant ERP and QT prolongation on the other hand signifies an elevated risk of undesirable pro-arrhythmic effects. Also the lack of a prolongation of the QRS interval which is due to the substances due to the substances of Formula I investigated indicates a low risk of undesirable pro-arrhythmic side-effects, since lack of QRS prolongation indicates an undisturbed spread of stimulus in the ventricle. Conversely, a QRS prolongation, which is typically triggered by Class I antiarrhythmic drugs indicates slowing of the conduction rate and may promote the occurrence of ventricular tachycardias to ventricular fibrillation.
Male guinea pigs (Dunkin-Hartley from Charles River) were anaesthetized (ketamine 50 mg/kg, xylazine 10 mg/kg) and each of them was provided with a venous access via one jugular vein for administration of compounds of Formula I or a vehicle. A bipolar stimulation catheter was fed into the right ventricle of the guinea pigs via the other jugular vein (stimulation frequency 5 Hz). The arterial blood pressure was measured by a catheter located in the carotid artery which was connected to a Statham pressure transducer. The ECG was recorded via needle electrodes. The measured data were digitized via an analog/digital converter, recorded on a computer with suitable software (Ponemah Physiology Platform from Gould, USA) and printed out in parallel on a multichannel printer. After an equilibration period of 45 min., increasing doses of the compounds of Formula I or of the vehicle were administered intravenously (=i.v.) to the guinea pigs at 12-minute intervals. Before the first administration and in each case one minute after administration of increasing doses (0.1−max. 30 μmole/kg) of the substances of Formula I, the effective refractory period was measured. For this, after five normal stimuli in each case an additional pulse was applied and the elapsed time thereof from the preceding pulse was increased until a heart action was triggered. The observed time interval corresponds to the ERP of the ventricular myocardium.
In order to detect possible effects of the test substances on the blood pressure, in the same test model after each administration of substance the systolic and diastolic blood pressure was determined and compared with the previous blood-pressure level. The parameters were recorded automatically 1 and 8 min. after each administration of substance.
Only statistically significant effects were listed, with a t-test with a significance limit of P<0.05 being used for the statistical testing.

T1 sequence (P22460 whole entry): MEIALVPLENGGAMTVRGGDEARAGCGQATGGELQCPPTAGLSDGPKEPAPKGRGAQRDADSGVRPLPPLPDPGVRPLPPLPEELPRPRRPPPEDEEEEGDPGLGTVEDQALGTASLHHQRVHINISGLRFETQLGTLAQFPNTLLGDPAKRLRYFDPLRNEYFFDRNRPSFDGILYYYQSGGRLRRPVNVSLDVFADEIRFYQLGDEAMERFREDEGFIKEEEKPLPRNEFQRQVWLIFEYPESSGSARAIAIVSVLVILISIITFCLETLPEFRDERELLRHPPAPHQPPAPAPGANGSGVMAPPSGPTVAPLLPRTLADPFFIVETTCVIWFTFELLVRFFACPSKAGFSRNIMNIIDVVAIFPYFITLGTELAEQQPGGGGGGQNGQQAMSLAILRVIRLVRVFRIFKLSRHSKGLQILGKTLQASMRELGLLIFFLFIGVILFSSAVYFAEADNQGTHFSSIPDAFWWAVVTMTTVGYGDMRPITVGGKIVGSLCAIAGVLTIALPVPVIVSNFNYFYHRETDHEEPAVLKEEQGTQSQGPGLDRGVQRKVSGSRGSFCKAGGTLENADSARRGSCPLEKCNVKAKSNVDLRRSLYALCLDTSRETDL

Turning to `CCc1ccc(S(=O)(=O)NC2c3cc(CC(=O)N4CCN(c5ccccc5)CC4)ccc3OC(C)(C)C2O)cc1` (stereo not drawn) [Example 16], at Kv 1.5-potassium channel, the IC50 is 6300 nM. In the data set with ventricle of guinea pigs, the QRS entry is on record as “n.s”, the QT entry is “n.s”, the “syst. blood pressure (change)” value was −8.6 mm Hg and the ERP was -7.5 ms.
Consider `CCc1ccc(S(=O)(=O)N(CC(C)(C)C)C2c3cc(CC(=O)NCCc4ccccc4)ccc3OC(C)(C)C2O)cc1` (stereo not drawn) [Example 10], for which, on Kv 1.5-potassium channel, the IC50 came to 1600 nM. Also, in the data set on ventricle of guinea pigs, the QRS entry was “n.s”, the QT entry was “n.s”, the “syst. blood pressure (change)” value is −15.9 mm Hg and the ERP is -8.0 ms.
`CCc1ccc(S(=O)(=O)N[C@@H]2c3cc(CC(=O)N[C@H]4CCCc5ccccc54)ccc3OC(C)(C)[C@H]2O)cc1` [Example 9]: on Kv 1.5-potassium channel, the IC50 came to 2900 nM.
Turning to `CCc1ccc(S(=O)(=O)N(CC(C)(C)C)[C@@H]2c3cc(CC(=O)NCc4ccccc4)ccc3OC(C)(C)[C@H]2O)cc1` [Example 7], the IC50 at Kv 1.5-potassium channel is 1500 nM. Besides, in the data set on ventricle of guinea pigs, the QRS entry is reported as “n.s”, the QT entry is on record as “n.s”, the “syst. blood pressure (change)” value is listed as −15.3 mm Hg and the ERP was -8.2 ms.
With `CC1(C)Oc2ccc(CC(=O)NC3CCCc4ccccc43)cc2C(NS(=O)(=O)c2cccc(F)c2)C1O` (mixture of isomers) [Example 13], the IC50 at Kv 1.5-potassium channel was 6500 nM. In addition, in the data set with ventricle of guinea pigs, the QRS result is given as “n.s”, the QT entry is reported as “n.s”, the “syst. blood pressure (change)” value is given as “n.s” and the ERP entry is given as “n.s”.
Consider `CCc1ccc(S(=O)(=O)N[C@@H]2c3cc(CC(=O)N[C@@H]4CCCc5ccccc54)ccc3OC(C)(C)[C@H]2O)cc1` [Example 2, 2-((3S,4R)-4-{[(4-ethylphenyl)sulfonyl]amino}-3-hydroxy-2,2-dimethyl-3,4-dihydro-2H-chromen-6-yl)-N-[(1R)-1,2,3,4-tetrahydronaphth-1-yl]acetamide], for which the IC50 at Kv 1.5-potassium channel amounted to 2000 nM. In the data set with ventricle of guinea pigs, the QRS entry is “n.s”, the QT entry is “n.s”, the “syst. blood pressure (change)” value is reported as “n.s” and the ERP result is listed as “n.s”.
For the compound `CCc1ccc(S(=O)(=O)N(CC(C)(C)C)[C@H]2c3cc(CC(=O)NCc4ccccc4)ccc3OC(C)(C)[C@@H]2O)cc1` [Example 8], the IC50 at Kv 1.5-potassium channel came to 500 nM. Also, in the data set with ventricle of guinea pigs, the QRS entry was “n.s”, the QT entry was “n.s”, the “syst. blood pressure (change)” value is listed as −10.7 mm Hg and the ERP result is listed as “n.s”.
For `CCc1ccc(S(=O)(=O)N(CC(C)(C)C)C2c3cc(CC(=O)NCc4ccccc4)ccc3OC(C)(C)C2O)cc1` (stereo not drawn) [Example 4, N-benzyl-2-{4-[[(4-ethylphenyl)sulfonyl](neopentyl)amino]-3-hydroxy-2,2-dimethyl-3,4-dihydro-2H-chromen-6-yl}acetamide], the IC50 on Kv 1.5-potassium channel is 1600 nM. For the same compound, in the data set on ventricle of guinea pigs, the QRS result is given as “n.s”, the QT result is listed as “n.s”, the “syst. blood pressure (change)” value is listed as “n.s” and the ERP result was “n.s”.
